What all share (assay type): cell-based
For assay [1], the target named is T1, hGCGR (Homo sapiens, UniProt P47871).
T1 construct: expressed in transfected cells
The assay is described as follows: Functional cAMP formation (HTRF) in HEK-293 clonal cells expressing hGCGR, 0.1% bovine casein, without or with 1.0% human serum albumin. As to conditions: geometric mean, read-out: hGCGR EC50, nM (SEM, n). A digest of the protocol: (§1)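 Cells were stimulated with peptide for 30 min at 37° C, then intracellular cAMP was measured by competitive HTRF (665/620 nm ratio) and converted to nM using a cAMP standard curve. Relative EC50 and Emax came from four-parameter logistic fits of percent maximal response against peptide concentration.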
A general note: cAMP levels reflect the balance of adenylyl cyclase and phosphodiesterase activity.

The target in assay [2] is hGLP-1R (Homo sapiens, UniProt P43220). The assay is described as follows: Functional cAMP formation (HTRF) in HEK-293 clonal cells expressing hGLP-1R, 0.1% bovine casein, without or with 1.0% human serum albumin. Also noted: expressed in transfected cells. As to conditions: for Emax: read-out: hGLP-1R Emax, % ± SEM; for EC50: geometric mean, read-out: hGLP-1R EC50, nM (SEM, n). A digest of the protocol:
as §1

Assay [3] addresses T2, hGIPR (Homo sapiens, UniProt P48546).
T2 construct: expressed in transfected cells
T2 sequence (P48546 22-466): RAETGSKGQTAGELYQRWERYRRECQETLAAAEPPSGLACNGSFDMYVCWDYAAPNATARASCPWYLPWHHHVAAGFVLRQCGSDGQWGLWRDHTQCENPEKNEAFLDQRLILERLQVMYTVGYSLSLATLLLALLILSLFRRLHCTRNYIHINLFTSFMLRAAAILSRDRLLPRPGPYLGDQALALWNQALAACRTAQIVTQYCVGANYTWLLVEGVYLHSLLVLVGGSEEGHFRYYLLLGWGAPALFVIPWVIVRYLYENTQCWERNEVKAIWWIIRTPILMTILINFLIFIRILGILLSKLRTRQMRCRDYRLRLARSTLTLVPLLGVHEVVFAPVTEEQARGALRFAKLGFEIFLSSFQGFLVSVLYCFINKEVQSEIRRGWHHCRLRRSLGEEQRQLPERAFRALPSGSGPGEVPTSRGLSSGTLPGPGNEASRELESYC
The assay is described as follows: Functional cAMP formation (HTRF) in HEK-293 clonal cells expressing hGIPR, 0.1% bovine casein, without or with 1.0% human serum albumin. As to conditions: for EC50: geometric mean, read-out: hGIPR EC50, nM (SEM, n); for Emax: HEK293, 0.1% bovine casein and 1.0% human serum albumin, percent of maximal response to GIP(1-42)NH2, read-out: hGIPR Emax, % ± SEM. A digest of the protocol:
as §1

[4] abbreviates: 0.1% bovine casein and 1.0% human serum albumin, 37° C.
Where [5] appears, read: cAMP, incubated at 37° C., 0.1% bovine casein (no human serum albumin).
Setting [6] is: HEK293, 0.1% bovine casein and 1.0% human serum albumin, 37° C., percent of maximal response to GLP-1(7-36)NH2.
Setting [7] is: cAMP, 37° C., 0.1% bovine casein (no human serum albumin).

The structures appear in SMILES notation. Like-named read-outs stand apart in the source and are kept apart here.

Our source for the EC50 and Emax values is patent US20230265151A1, “GIP/GLP1 CO-AGONIST COMPOUNDS” (priority 2020, published 2023).

hGLP-1R, sequence (P43220 24-463): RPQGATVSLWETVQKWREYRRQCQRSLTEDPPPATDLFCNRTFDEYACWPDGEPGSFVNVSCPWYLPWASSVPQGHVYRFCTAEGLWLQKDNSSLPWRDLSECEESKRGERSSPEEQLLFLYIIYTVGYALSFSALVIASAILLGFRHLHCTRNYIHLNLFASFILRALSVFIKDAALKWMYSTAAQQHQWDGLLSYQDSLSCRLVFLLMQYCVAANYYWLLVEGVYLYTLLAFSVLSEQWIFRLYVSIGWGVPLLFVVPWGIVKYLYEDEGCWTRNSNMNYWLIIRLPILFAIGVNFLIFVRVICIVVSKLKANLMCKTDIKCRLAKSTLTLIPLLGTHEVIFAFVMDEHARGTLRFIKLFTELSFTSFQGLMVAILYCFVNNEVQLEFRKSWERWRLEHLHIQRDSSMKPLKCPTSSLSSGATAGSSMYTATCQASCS
T1 sequence (P47871 26-477): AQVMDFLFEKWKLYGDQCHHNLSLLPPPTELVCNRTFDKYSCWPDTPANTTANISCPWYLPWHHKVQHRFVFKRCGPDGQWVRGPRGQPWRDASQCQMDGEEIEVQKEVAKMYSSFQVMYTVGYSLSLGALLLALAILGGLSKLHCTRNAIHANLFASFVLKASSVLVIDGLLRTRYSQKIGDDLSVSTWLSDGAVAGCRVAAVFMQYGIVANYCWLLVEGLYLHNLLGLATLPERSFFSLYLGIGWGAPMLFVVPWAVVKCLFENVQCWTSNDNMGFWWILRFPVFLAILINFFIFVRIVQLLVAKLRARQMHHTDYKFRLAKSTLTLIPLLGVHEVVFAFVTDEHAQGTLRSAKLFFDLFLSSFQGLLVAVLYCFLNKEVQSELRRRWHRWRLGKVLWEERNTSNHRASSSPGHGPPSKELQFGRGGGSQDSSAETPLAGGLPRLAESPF

In general, EC50 refers to the concentration that produces a half-maximal response. In general, Emax refers to the size of the effect at its maximum, as opposed to the concentration needed. Turning to `CC[C@H](C)[C@H](NC(=O)[C@H](CC(C)C)NC(=O)[C@](C)(Cc1ccc(O)cc1)NC(=O)[C@@H](CCC(=O)O)NC(=O)[C@@H](NC(=O)[C@H](Cc1ccccc1F)NC(=O)[C@H](CCC(=O)O)NC(=O)C(C)(C)NC(=O)[C@H](CCC(N)=O)NC(=O)[C@H](C)NC(=O)[C@H](CCCCNC(=O)COCCOCCNC(=O)COCCOCCNC(=O)CC[C@H](NC(=O)CCCCCCCCCCCCC(=O)O)C(=O)O)NC(=O)[C@H](CCCN)NC(=O)[C@H](CC(=O)O)NC(=O)[C@H](CC(C)C)NC(=O)[C@](C)(CC(C)C)NC(=O)[C@@H](NC(=O)[C@H](CO)NC(=O)[C@H](Cc1ccncc1)NC(=O)[C@H](CC(=O)O)NC(=O)[C@H](CO)NC(=O)[C@@H](NC(=O)[C@](C)(Cc1ccccc1F)NC(=O)[C@@H](NC(=O)CNC(=O)[C@H](CCC(=O)O)NC(=O)C(C)(C)NC(=O)[C@@H](N)Cc1ccc(O)cc1)[C@@H](C)O)[C@@H](C)O)[C@@H](C)CC)[C@@H](C)CC)C(=O)N[C@@H](CCC(=O)O)C(=O)NCC(=O)NCC(=O)N[C@@H](CCCCNC(=O)COCCOCCNC(=O)COCCOCCNC(=O)CC[C@H](NC(=O)CCCCCCCCCCCCC(=O)O)C(=O)O)C(=O)N[C@@H](CO)C(=O)N[C@@H](CO)C(=O)NCC(=O)N[C@@H](C)C(=O)N1CCC[C@H]1C(=O)N1CCC[C@H]1C(=O)N1CCC[C@H]1C(=O)N[C@@H](CO)C(N)=O` [Example 63], the 50% effective concentration (EC50) in assay [1] (setting [4]) is more than 9950 nM; in assay [1] (setting [5]), more than 9950 nM; in assay [3] (setting [4]) it was 0.771 nM; in assay [3] (setting [5]), 0.0176 nM. Moreover, the Emax in assay [2] (setting [6]) came to 98%; in assay [2] (HEK293, percent of maximal response to GLP-1(7-36)NH2, 37° C., 0.1% bovine casein, arithmetic mean), 90.6%.
Consider `CCCC[C@H](NC(=O)[C@H](CC(=O)O)NC(=O)[C@H](CO)NC(=O)[C@@H](NC(=O)[C@](C)(Cc1ccccc1F)NC(=O)[C@@H](NC(=O)CNC(=O)[C@H](CCC(=O)O)NC(=O)C(C)(C)NC(=O)[C@@H](N)Cc1ccc(O)cc1)[C@@H](C)O)[C@@H](C)O)C(=O)N[C@@H](CO)C(=O)N[C@H](C(=O)N[C@@](C)(CC(C)C)C(=O)N[C@@H](CC(C)C)C(=O)N[C@@H](CC(=O)O)C(=O)N[C@@H](CCCN)C(=O)N[C@@H](CCCCNC(=O)COCCOCCNC(=O)COCCOCCNC(=O)CCCCCCCCCCCCC(=O)O)C(=O)N[C@@H](C)C(=O)N[C@@H](CCC(N)=O)C(=O)NC(C)(C)C(=O)N[C@@H](CCCCNC(=O)COCCOCCNC(=O)COCCOCCNC(=O)CCCCCCCCCCCCC(=O)O)C(=O)N[C@@H](Cc1ccccc1)C(=O)N[C@H](C(=O)N[C@H](CCC(=O)O)C(=O)N[C@@](C)(Cc1ccc(O)cc1)C(=O)N[C@@H](CC(C)C)C(=O)N[C@H](C(=O)N[C@@H](CCC(=O)O)C(=O)NCC(=O)NCC(=O)N1CCC[C@H]1C(=O)N[C@@H](CO)C(=O)N[C@@H](CO)C(=O)NCC(=O)N[C@@H](C)C(=O)N1CCC[C@H]1C(=O)N1CCC[C@H]1C(=O)N1CCC[C@H]1C(=O)N[C@@H](CO)C(N)=O)[C@@H](C)CC)[C@@H](C)CC)[C@@H](C)CC` [Example 271], for which the EC50 in assay [1] (setting [4]) is more than 9950 nM; in assay [1] (setting [7]), more than 9950 nM; in assay [2] (setting [4]), 10.2 nM; in assay [3] (setting [7]), 0.0186 nM. Also, the maximum response (Emax) in assay [2] (setting [6]) was found to be 122%; in assay [3] (37° C.) it was 97.3%.
On to `CC[C@H](C)[C@H](NC(=O)[C@H](CC(C)C)NC(=O)[C@](C)(Cc1ccc(O)cc1)NC(=O)[C@@H](CCC(=O)O)NC(=O)[C@@H](NC(=O)[C@H](Cc1ccccc1)NC(=O)[C@H](CCCCNC(=O)COCCOCCNC(=O)COCCOCCNC(=O)CCCCCCCCCCCCC(=O)O)NC(=O)C(C)(C)NC(=O)[C@H](CCC(N)=O)NC(=O)[C@H](C)NC(=O)[C@H](CCCCNC(=O)COCCOCCNC(=O)COCCOCCNC(=O)CCCCCCCCCCCCC(=O)O)NC(=O)[C@H](CCCN)NC(=O)[C@H](CC(=O)O)NC(=O)[C@H](CC(C)C)NC(=O)[C@](C)(CC(C)C)NC(=O)[C@@H](NC(=O)[C@H](CO)NC(=O)[C@H](Cc1ccncc1)NC(=O)[C@H](CC(=O)O)NC(=O)[C@H](CO)NC(=O)[C@@H](NC(=O)[C@](C)(Cc1ccccc1F)NC(=O)[C@@H](NC(=O)CNC(=O)[C@H](CCC(=O)O)NC(=O)C(C)(C)NC(=O)[C@@H](N)Cc1ccc(O)cc1)[C@@H](C)O)[C@@H](C)O)[C@@H](C)CC)[C@@H](C)CC)C(=O)N[C@@H](CCC(=O)O)C(=O)NCC(=O)NCC(=O)N1CCC[C@H]1C(=O)N[C@@H](CO)C(=O)N[C@@H](CO)C(=O)NCC(=O)N[C@@H](C)C(=O)N1CCC[C@H]1C(=O)N1CCC[C@H]1C(=O)N1CCC[C@H]1C(=O)N[C@@H](CO)C(N)=O` [Example 78], for which the concentration for a half-maximal effect (EC50) in assay [1] (setting [4]) was more than 9950 nM; in assay [1] (setting [5]), more than 9950 nM; in assay [2] (setting [4]), 4.29 nM; in assay [2] (setting [5]), 0.286 nM; in assay [3] (setting [4]), 0.242 nM; in assay [3] (setting [5]), 0.0145 nM. Besides, the Emax in assay [3] (37° C.) was 89.7 ± 2.65%.
As for `CC[C@H](C)[C@H](NC(=O)[C@H](CCCN)NC(=O)[C@H](CC(=O)O)NC(=O)[C@H](CC(C)C)NC(=O)[C@](C)(CC(C)C)NC(=O)[C@@H](NC(=O)[C@H](CO)NC(=O)[C@H](Cc1ccncc1)NC(=O)[C@H](CC(=O)O)NC(=O)[C@H](CO)NC(=O)[C@@H](NC(=O)[C@](C)(Cc1ccccc1F)NC(=O)[C@@H](NC(=O)CNC(=O)[C@H](CCC(=O)O)NC(=O)C(C)(C)NC(=O)[C@@H](N)Cc1ccc(O)cc1)[C@@H](C)O)[C@@H](C)O)[C@@H](C)CC)C(=O)N[C@@H](C)C(=O)N[C@@H](CCC(N)=O)C(=O)NC(C)(C)C(=O)N[C@@H](CCCCNC(=O)COCCOCCNC(=O)COCCOCCNC(=O)CC[C@H](NC(=O)CCCc1ccc(C(C)(C)C)cc1)C(=O)O)C(=O)N[C@@H](Cc1ccccc1)C(=O)N[C@H](C(=O)N[C@H](CCC(=O)O)C(=O)N[C@@](C)(Cc1ccc(O)cc1)C(=O)N[C@@H](CC(C)C)C(=O)N[C@H](C(=O)N[C@@H](CCC(=O)O)C(=O)NCC(=O)NCC(=O)N1CCC[C@H]1C(=O)N[C@@H](CO)C(=O)N[C@@H](CO)C(=O)NCC(=O)N[C@@H](C)C(=O)N1CCC[C@H]1C(=O)N1CCC[C@H]1C(=O)N1CCC[C@H]1C(=O)N[C@@H](CO)C(=O)N[C@@H](CCCCNC(=O)COCCOCCNC(=O)COCCOCCNC(=O)CC[C@H](NC(=O)CCCc1ccc(C(C)(C)C)cc1)C(=O)O)C(N)=O)[C@@H](C)CC)[C@@H](C)CC` [Example 205], the EC50 in assay [1] (setting [4]) is more than 9950 nM; in assay [1] (setting [5]), more than 9950 nM; in assay [2] (setting [4]), 2.18 nM; in assay [3] (setting [4]), 0.261 nM; in assay [3] (setting [5]), 0.0264 nM. In addition, the Emax in assay [3] (37° C.) worked out at 72.1%.
